# Experimental data: ChEMBL document CHEMBL1201862, “PubChem BioAssay data set” (2004)
# Calls of active or inactive are those of the source.
# Assays:
# [1] = molecular target: T1, Endoribonuclease toxin MazF (Escherichia coli K-12, UniProt P0AE70); assay: MazEF toxin-antitoxin RNase activation – biochemical, fluorescence, single-stranded RNA substrate, SAR follow-up (AID 588603); assay type: functional
# T1 sequence (P0AE70 whole entry): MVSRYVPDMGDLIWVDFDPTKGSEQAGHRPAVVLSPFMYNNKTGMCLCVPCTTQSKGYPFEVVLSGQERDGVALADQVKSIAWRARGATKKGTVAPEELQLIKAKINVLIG
# [2] = molecular target: T1, Endoribonuclease toxin MazF; assay: substrate-only fluorescence increase artefacts – biochemical, single-stranded RNase substrate, counter-screen for MazEF activator project, dose response (AID 588502); assay type: functional
# MEF = assay: SAR analysis of small molecule cytotoxicity of MazEF TA System activators in embryonic fibroblast (MEF) cells. [Related pubchem assays (depositor defined):AID504720, AID504743]; assay type: functional; settings: Mus musculus
# [3] = molecular target: T1, Endoribonuclease toxin MazF; assay: SAR analysis of small molecule activators of the MazEF TA System via a fluorescence-based single-stranded RNase assay counterscreen. [Related pubchem assays (depositor defined):AID504720, AID504743]; assay type: functional
# [4] = molecular target: T1, Endoribonuclease toxin MazF; assay: activation of MazEF endoribonuclease cleavage – biochemical, fluorescence, single-stranded RNA substrate, uHTS hits, dose response (AID 588481); assay type: functional
# Insulin-degrading enzyme [5] = molecular target: T2, Insulin-degrading enzyme (Homo sapiens, UniProt P14735); assay: cellular IDE activation of Abeta substrate cleavage – fluorescence polarization, HEK cells, dose response (AID 588439); assay type: functional, cell-based
# T2 sequence (P14735 whole entry): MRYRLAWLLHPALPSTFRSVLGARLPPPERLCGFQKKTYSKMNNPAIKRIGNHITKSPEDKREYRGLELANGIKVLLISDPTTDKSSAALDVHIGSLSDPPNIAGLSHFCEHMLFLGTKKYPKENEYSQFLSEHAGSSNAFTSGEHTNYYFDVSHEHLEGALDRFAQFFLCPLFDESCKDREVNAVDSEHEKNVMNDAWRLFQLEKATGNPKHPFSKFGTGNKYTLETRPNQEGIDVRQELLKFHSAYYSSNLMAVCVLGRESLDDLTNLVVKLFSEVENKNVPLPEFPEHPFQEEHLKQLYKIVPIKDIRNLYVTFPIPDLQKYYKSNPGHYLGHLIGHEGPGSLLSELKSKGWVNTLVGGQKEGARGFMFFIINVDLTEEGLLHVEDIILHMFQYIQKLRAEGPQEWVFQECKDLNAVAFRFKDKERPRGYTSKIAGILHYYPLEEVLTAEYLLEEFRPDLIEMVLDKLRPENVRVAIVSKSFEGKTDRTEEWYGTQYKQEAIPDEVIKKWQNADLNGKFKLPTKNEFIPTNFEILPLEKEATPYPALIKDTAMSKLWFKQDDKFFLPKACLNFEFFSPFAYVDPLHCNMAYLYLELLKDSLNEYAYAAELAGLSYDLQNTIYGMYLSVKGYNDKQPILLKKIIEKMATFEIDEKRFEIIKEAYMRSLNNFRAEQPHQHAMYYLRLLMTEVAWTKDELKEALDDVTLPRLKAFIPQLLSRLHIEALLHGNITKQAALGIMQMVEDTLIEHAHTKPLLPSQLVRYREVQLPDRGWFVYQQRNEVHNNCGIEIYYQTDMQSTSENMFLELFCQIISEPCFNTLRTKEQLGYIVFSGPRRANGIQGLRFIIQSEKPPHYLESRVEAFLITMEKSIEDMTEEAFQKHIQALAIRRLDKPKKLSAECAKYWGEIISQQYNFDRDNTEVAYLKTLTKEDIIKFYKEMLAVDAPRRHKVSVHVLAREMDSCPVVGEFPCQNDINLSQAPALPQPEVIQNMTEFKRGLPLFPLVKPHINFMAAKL
# HEK293 [6] = assay: membrane integrity loss in HEK cells – cell-based, fluorescence, cytotoxicity control for IDE activator project, dose response (AID 588440); assay type: functional; settings: Homo sapiens;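 further: cytotoxicity by LDH release measuring loss of membrane integrity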
# Insulin-degrading enzyme [7] = molecular target: T2, Insulin-degrading enzyme; assay: recombinant IDE activation, cell-free – biochemical, fluorescence polarization, counter-screen for IDE activator project, dose response (AID 588681)
# HEK293 [8] = assay: optical interference in Abeta FP readout, dose response, artefact control for IDE activator project, biochemical, fluorescence polarization (AID 588442); assay type: functional, cell-based; settings: Homo sapiens
# [9] = molecular target: T3, Sentrin-specific protease 6 (Homo sapiens, UniProt Q9GZR1); assay type: functional;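 further: Luminescence-based dose-response confirmatory assay of SENP6 inhibition, following up an ultra-high-throughput screen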
# T3 sequence (Q9GZR1 whole entry): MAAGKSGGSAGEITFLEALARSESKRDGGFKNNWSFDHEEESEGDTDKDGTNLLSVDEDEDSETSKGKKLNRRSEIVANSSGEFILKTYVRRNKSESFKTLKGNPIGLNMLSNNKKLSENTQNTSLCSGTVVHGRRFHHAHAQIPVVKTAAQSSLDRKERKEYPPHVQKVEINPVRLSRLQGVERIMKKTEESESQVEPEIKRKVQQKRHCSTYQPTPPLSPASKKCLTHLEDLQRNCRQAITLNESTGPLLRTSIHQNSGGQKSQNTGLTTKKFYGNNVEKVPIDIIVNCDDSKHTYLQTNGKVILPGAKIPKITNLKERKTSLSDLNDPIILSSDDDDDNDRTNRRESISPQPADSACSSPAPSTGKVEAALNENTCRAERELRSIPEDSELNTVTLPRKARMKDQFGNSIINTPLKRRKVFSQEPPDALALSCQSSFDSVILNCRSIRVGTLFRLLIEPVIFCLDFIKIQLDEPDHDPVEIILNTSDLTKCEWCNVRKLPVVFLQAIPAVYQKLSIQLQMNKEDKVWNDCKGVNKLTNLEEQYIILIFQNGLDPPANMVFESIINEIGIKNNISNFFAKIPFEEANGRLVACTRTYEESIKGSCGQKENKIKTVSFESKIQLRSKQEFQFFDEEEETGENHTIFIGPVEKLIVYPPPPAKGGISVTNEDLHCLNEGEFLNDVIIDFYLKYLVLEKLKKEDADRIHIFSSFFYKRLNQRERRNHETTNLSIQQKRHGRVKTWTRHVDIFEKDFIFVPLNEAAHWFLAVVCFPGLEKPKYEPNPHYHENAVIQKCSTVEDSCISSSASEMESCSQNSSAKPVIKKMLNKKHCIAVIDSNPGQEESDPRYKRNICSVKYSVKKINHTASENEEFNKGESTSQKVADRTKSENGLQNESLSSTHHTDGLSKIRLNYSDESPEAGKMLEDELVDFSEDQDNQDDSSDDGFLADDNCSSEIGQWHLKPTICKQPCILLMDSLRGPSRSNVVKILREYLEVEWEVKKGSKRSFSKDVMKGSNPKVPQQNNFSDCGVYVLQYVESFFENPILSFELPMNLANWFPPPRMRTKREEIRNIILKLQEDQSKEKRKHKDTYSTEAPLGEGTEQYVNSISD
# [10] = molecular target: T4, Sentrin-specific protease 7 (Homo sapiens, UniProt Q9BQF6); assay type: functional;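 further: Luminescence-based dose-response confirmation of ultra-high-throughput screening hits, measuring inhibition of SENP7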
# T4 sequence (Q9BQF6 whole entry): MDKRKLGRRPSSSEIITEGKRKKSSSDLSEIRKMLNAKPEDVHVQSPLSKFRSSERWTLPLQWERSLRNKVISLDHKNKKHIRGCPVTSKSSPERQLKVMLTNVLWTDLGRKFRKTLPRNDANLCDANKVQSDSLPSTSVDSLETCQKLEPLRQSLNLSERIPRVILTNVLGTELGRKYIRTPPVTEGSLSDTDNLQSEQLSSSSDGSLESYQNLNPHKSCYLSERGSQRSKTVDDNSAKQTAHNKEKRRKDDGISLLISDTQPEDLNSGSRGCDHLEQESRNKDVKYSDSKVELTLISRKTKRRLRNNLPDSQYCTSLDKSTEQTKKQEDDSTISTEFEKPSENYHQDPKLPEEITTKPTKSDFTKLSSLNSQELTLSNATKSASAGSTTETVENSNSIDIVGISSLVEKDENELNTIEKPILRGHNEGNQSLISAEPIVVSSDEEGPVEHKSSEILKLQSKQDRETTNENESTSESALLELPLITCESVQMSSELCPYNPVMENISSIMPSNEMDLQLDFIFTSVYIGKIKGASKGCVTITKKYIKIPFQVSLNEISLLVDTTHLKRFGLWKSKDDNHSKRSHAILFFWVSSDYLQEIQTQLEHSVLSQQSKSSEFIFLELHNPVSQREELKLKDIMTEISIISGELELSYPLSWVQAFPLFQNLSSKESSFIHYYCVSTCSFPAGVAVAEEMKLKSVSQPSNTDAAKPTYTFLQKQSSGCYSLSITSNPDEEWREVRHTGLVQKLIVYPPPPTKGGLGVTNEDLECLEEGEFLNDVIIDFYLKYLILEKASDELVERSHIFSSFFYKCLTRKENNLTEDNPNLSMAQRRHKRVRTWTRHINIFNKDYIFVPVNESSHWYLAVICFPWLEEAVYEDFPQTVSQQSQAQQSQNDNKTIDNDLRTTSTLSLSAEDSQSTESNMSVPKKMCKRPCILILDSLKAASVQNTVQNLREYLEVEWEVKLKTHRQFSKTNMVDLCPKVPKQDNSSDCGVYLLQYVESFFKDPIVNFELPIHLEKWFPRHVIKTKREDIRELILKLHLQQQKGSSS
# [11] = molecular target: T5, Sentrin-specific protease 8 (Homo sapiens, UniProt Q96LD8); assay type: functional;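 further: luminescence read-out of SENP8 inhibition, dose-response confirmation following an ultra-high-throughput screen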
# T5 sequence (Q96LD8 whole entry): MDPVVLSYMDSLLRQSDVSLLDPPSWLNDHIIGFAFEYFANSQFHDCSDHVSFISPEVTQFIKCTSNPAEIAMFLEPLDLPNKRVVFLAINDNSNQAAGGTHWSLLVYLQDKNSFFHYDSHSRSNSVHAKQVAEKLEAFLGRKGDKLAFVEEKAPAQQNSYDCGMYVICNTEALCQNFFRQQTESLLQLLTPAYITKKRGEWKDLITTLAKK
# Caspase-3 = molecular target: T6, Caspase-3 (Homo sapiens, UniProt P42574); assay type: functional;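 further: Dose-response selectivity test against caspase-3 for candidate inhibitors of sentrin-specific proteases (SENPs)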
# T6 sequence (P42574 whole entry): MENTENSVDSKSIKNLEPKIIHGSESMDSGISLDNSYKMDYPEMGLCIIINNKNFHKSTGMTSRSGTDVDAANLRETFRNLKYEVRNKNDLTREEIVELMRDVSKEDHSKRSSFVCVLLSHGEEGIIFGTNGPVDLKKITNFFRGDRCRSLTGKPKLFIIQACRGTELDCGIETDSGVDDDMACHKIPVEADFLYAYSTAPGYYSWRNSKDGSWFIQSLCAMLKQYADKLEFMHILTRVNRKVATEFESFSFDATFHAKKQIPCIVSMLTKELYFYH
# Streptokinase A = molecular target: T7, Streptokinase A (Streptococcus pyogenes serotype M1, UniProt P10520); assay: viability-normalized secreted streptokinase activity reduction – plasminogen activation absorbance, OD405, dose response (AID 1914); assay type: functional, Streptococcus pyogenes M1 GAS;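 further: secreted streptokinase activity via plasminogen activation per viability signal from cell pellet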
# T7 sequence (P10520 whole entry): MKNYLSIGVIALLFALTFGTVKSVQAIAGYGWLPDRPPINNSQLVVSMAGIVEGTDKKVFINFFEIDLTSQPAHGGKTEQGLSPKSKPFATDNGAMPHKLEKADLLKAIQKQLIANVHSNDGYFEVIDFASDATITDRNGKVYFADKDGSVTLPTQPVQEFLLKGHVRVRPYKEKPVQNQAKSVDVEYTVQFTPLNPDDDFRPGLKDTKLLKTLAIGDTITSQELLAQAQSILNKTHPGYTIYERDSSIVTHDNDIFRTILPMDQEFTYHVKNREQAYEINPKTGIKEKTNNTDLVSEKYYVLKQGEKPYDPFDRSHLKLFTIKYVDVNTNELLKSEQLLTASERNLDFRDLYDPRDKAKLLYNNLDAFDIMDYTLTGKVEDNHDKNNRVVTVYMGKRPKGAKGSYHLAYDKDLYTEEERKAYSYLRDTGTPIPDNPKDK
# [12] = tested on: Streptococcus sp. 'group A'; assay: Streptococcus pyogenes SK(-)GAS viability under kanamycin – luminescence, BacTiterGlo, confirmation, counter-screen for streptokinase expression inhibitor project, dose response (AID 1900); assay type: functional, organism-based
# Phospholipase A2 = Phospholipase A2 (Homo sapiens, UniProt P04054); assay type: functional;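 further: confirmatory dose-response counterscreen on phospholipase A2, testing hits that came from an ultra-high-throughput screen for ATG4B inhibitors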
# Cysteine protease ATG4B = Cysteine protease ATG4B (Homo sapiens, UniProt Q9Y4P1); assay type: functional;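 further: Fluorescence-based dose-response confirmation assay measuring inhibition of ATG4B activity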
# Streptococcus = assay: GAS UMAA2166 growth inhibition – luminescence, BacTiterGlo, counter-screen for streptokinase expression inhibitor project, dose response (AID 1915); assay type: functional, organism-based;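 further: potency for reduction of bacterial viability or growth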
# Cysteine protease ATG4B, sequence (Q9Y4P1 whole entry): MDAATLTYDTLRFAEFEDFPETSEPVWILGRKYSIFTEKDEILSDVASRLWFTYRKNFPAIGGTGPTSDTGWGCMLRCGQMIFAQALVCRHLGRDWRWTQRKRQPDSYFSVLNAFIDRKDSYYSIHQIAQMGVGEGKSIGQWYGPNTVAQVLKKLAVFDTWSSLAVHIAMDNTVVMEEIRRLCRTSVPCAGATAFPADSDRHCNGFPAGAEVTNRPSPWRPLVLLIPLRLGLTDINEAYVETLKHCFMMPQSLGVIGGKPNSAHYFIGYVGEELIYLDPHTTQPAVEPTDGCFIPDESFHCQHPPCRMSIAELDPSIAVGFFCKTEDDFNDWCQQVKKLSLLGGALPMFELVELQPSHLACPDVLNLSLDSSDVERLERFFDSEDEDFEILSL
# Phospholipase A2, sequence (P04054 whole entry): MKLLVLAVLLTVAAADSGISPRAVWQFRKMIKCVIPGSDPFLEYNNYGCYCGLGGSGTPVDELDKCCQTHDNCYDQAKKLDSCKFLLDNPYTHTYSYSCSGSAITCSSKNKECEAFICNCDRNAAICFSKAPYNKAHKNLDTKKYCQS
compound,measurement,setting,value
Cc1[nH]c2ccccc2c1/C=C/c1nc2ccccc2c(=O)n1-c1ccc([N+](=O)[O-])cc1,EC50,[1],> 99 µM (inactive)
same,EC50,[2],> 99 µM (inactive)
same,CC50,MEF,> 99 µM (inactive)
same,EC50,[3],> 99 µM (inactive)
same,EC50,[4],> 99 µM (inactive)
c1ccc(C2CC3CC4(CCCC4)N2O3)cc1 (centres undefined),EC50,Insulin-degrading enzyme [5],> 54.7 µM (inactive)
same,IC50,HEK293 [6],> 89.2 µM (inactive)
same,EC50,Insulin-degrading enzyme [7],> 54.7 µM (inactive)
same,EC50,HEK293 [8],> 55.9 µM (inactive)
CN(C)CCCN(C(=O)COc1ccc(Cl)cc1)c1nc2ccc(F)cc2s1,EC50,Insulin-degrading enzyme [5],> 54.7 µM (inactive)
same,IC50,HEK293 [6],> 29.7 µM (inactive)
same,EC50,Insulin-degrading enzyme [7],> 54.7 µM (inactive)
same,EC50,HEK293 [8],> 55.9 µM (inactive)
CCSc1nnc(NC(=O)c2ccc(C)cc2)s1,IC50,[9],> 100 µM (inactive)
same,IC50,[10],9.7 µM (active)
same,IC50,[11],> 100 µM (inactive)
same,IC50,Caspase-3,28 µM (active)
COC(=O)/C=C1\SC(Nc2ccc(Cl)c(Cl)c2)=NC1=O,EC50,Streptokinase A,15.4 µM (active)
same,EC50,[12],10 µM (active)
same,IC50,Phospholipase A2,11 µM (active)
same,IC50,Cysteine protease ATG4B,16.9 µM (active)
same,EC50,Streptococcus,16.9 µM (active)
Cc1ccc2[nH]c(-c3ccc(NC(=O)c4ccco4)cc3)nc2c1,IC50,[9],> 100 µM (inactive)
same,IC50,[10],6.23 µM (active)
same,IC50,[11],30.8 µM (active)
same,IC50,Caspase-3,29.6 µM (active)
O=[N+]([O-])c1ccc(S(=O)(=O)N/N=C/c2c[nH]c3ccccc23)cc1,EC50,[1],56.8 µM (inactive)
same,CC50,MEF,> 99 µM (inactive)
same,EC50,[3],> 99 µM (inactive)
